Measurements: patent US20090203744A1, “NOVEL PYRIDINE DERIVATIVES” (priority 2005, published 2009)

These molecules were tested on Streptozotocin induced diabetic mice (assay: Antidiabetic activity in Streptozotocin induced diabetic mice). Conditions: plasma, 50 mg/kg oral for 7 days, fasted 6 hours, compared to control group.
Type: in vivo
Protocol: Male Swiss albino mice were used in the study at the age of 10 weeks. Diabetes was induced in animals by injecting Streptozotocin by i.p. route at a dose of 200-mg/kg-body weight. 48 hours after Streptozotocin administration, the animals were kept for fasting for 6 hours and blood was collected and plasma separated and glucose was estimated. Animals showing greater than 200 mg/dl glucose levels were considered as diabetic and these animals were randomly distributed into various groups. The compounds listed in the table 2 were administered at a dose of 50-mg/kg body weight by oral route for 7 days. Later animals were fasted for 6 hours and blood was collected and plasma separated. Biochemical estimations like glucose, cholesterol and triglycerides were carried out using the plasma. The effect of compounds mentioned in the table was expressed in terms of percentage reduction in biochemical values as compared to control group.

| SMILES | % Reduction Triglyceride [%] | % Reduction Cholesterol [%] | % Reduction Glucose [%] |
| --- | --- | --- | --- |
| CN1C(=O)OC[C@@H]1Cc1ccc(Oc2ccc(Nc3ncccc3C#N)cc2F)cc1 [Example 22, 2-{[3-fluoro-4-(4-{[(4S)-3-methyl-2-oxo-1,3-oxazolidin-4-yl]methyl}phenoxy)phenyl]amino}nicotinonitrile] | 5.2 |  |  |
| CCN(c1ccc(Oc2ccc(C[C@H]3COC(=O)N3CC)cc2)cc1)c1ncccc1C#N [Example 24, (4S)-2-[ethyl(4-{4-[(3-ethyl-2-oxo-1,3-oxazolidin-4-yl)methyl]phenoxy}phenyl)amino]nicotinonitrile] | 13.7 | 15.9 |  |
| CN(c1ccc(Oc2ccc(C[C@H]3COC(=O)N3C)cc2)cc1)c1ncccc1C#N [Example 45, (4S)-2-[methyl(4-{4-[(3-methyl-2-oxo-1,3-oxazolidin-4-yl)methyl]phenoxy}phenyl)amino]nicotinonitrile] | 53.8 | 10 | 39 |

What follows are molecules tested on 3T3-L1 cells (assay: Glucose uptake assay using 3T3-L1 cells). Conditions: differentiated 3T3-L1 adipocytes, 1 μM, 72 hours, 14C deoxyglucose uptake for 10 minutes; with reference to stimulation index of BLX-1002.
Type: cell-based
Protocol: 3T3-L1 cells were differentiated by the addition of differentiation cocktail (72 μg/ml insulin, 0.5 mM IBMX, 400 ng/ml Dexamethasone) for 4 days and later fed with media without differentiation cocktail for 7-8 days. After differentiation the cells were incubated with the either the reference compound BLX-1002 or compounds listed in the table 1 at 1 μM concentrations for 72 hours and carried out the glucose uptake assay for 10 minutes by the addition of KRP buffer supplemented with 2.5 μCi/ml ^14C deoxy glucose. Stimulation Index is defined as the amount of ^14C Deoxyglucose uptake induced by 1 μM of BLX-1002 incubated for 72 hours in an assay condition as per protocol described above with differentiated 3T3-L1 adipocytes. Values of compounds mentioned in table-1 are with reference to stimulation index of reference compound BLX-1002.

| SMILES | Stimulation Index |
| --- | --- |
| CN1C(=O)OC[C@@H]1Cc1ccc(Oc2ccc(Nc3ccccn3)cc2)cc1 [Example 1, 3-methyl-4-{4-[4-(pyridin-2-ylamino)phenoxy]benzyl}-1,3-oxazolidin-2-one] | 0.827 |
| CN1C(=O)OC[C@@H]1Cc1ccc(Oc2ccc(Nc3ccc([N+](=O)[O-])cn3)cc2)cc1 [Example 2, (4S)4-(4-{4-[(5-nitropyridin-2-yl)amino]phenoxy}benzyl)-3-methyl-1,3-oxazolidin-2-one] | 0.935 |
| CCN1C(=O)OC[C@@H]1Cc1ccc(Oc2ccc(Nc3ccccn3)cc2F)cc1 [Example 8, (4S)-4-[4-(2-fluoro-4-{[5-pyridin-2-yl]amino}phenoxy)benzyl]-3-ethyl-1,3-oxazolidin-2-one] | 1.049 |
| CCN1C(=O)OC[C@@H]1Cc1ccc(Oc2ccc(Nc3ncccc3[N+](=O)[O-])cc2F)cc1 [Example 12, (4S)-4-[4-(2-fluoro-4-{[3-nitropyridin-2-yl]amino}phenoxy)benzyl]-3-ethyl-1,3-oxazolidin-2-one] | 0.935 |
| CCN1C(=O)OC[C@@H]1Cc1ccc(Oc2ccc(Nc3ncccc3C#N)cc2F)cc1 [Example 13, 2-{[3-fluoro-4-(4-{[(4S)-3-ethyl-2-oxo-1,3-oxazolidin-4-yl]methyl}phenoxy)phenyl]amino}nicotinonitrile] | 0.874 |
| CCN1C(=O)OC[C@@H]1Cc1ccc(Oc2ccc(Nc3ncccc3C#N)cc2)cc1 [Example 14, 2-[(4-{4-[(3-ethyl-2-oxo-1,3-oxazolidin-4-yl)methyl]phenoxy}phenyl)amino]nicotinonitrile] | 0.827 |
